“And” between values parts separate entries of the source, which are not always exact repeats. Equal entries are not always repeated. “Also recorded” adds a separate entry of the source.
Tests used:
KRAS = assay: Immunoblot of lysates of cell lines treated with 17-AAG: KRAS; assay type: cell-based, human; conditions: sensitive (KRAS-mutant) cell lines
From the text: (§1) (A) Distribution of KRAS mutations (black columns) across the 17-AAG-sensitivity profile (IC50 values) in the NSCLC cell line collection and the NCI-60 cell line panel. Incidence of KRAS mutation and sensitivity towards 17-AAG is represented by a Fisher's exact test for both datasets. (B) Lysates of a KRAS wildtype (wt) and a KRAS mutated (G12C) cell line treated with 17AAG at different concentrations were immunoblotted for c-RAF, KRAS, cyclinD1 and Akt. (C) Distribution of copy number gain at 1q21.3 (black columns) across the UO126-sensitivity profile (IC50 values) in the NSCLC cell line collection and the hypothemycin-sensitivity profile in the NCI-60 cell line panel. Incidence of amplification of 1q21.3 mutation and sensitivity towards 17-AAG is represented by a Fisher's exact test for both datasets. […]
(§2) Whole-cell lysates were prepared in NP40 lysis buffer (50 mmol/L Tris-HCl (pH 7.4). 150 mmol/L NaCl, 1% NP40) supplemented with protease and phosphatase inhibitor I and II cocktails (www.merckbiosciences.co.uk/g.asp?f=CBC/home.html) and clarified by centrifugation. Protein concentrations were determined using the Bicinchoninic Acid Protein Assay kit (www.piercenet.com) and equivalent amounts (40-60 μg) were subjected to SDS-PAGE on 12% gels, except where indicated. […]

Akt = assay: Immunoblot of lysates of cell lines treated with 17-AAG: Akt; assay type: cell-based, human; conditions: sensitive (KRAS-mutant) cell lines
From the text: as §1, §2

[1] = tested on: mutant EGFR bound to Hsp90; assay: Depletion of mutant EGFR from the Hsp90 complex; assay type: cell-based; conditions: same conditions as for KRAS
[2] = tested on: mutant KRAS bound to Hsp90; assay: Depletion of mutant KRAS from the Hsp90 complex; assay type: cell-based; conditions: treatment with HSP90 inhibitor
c-RAF = assay: Immunoblot of lysates of cell lines treated with 17-AAG: c-RAF; assay type: cell-based, human; conditions: sensitive (KRAS-mutant) cell lines
From the text: as §1, §2

NSCLC cell lines = assay: High-throughput cell-based screening of the NSCLC cell line collection (CellTiter-Glo viability); conditions: for sensitivity pattern (cytotoxic activity) across the NSCLC cell line collection: cellular viability after 96 h, cellular ATP content, entire NSCLC cell line panel
[3] = tested on: KRAS-driven lung adenocarcinomas
Experimental: FIG. 20. […] Note that the images were taken from the earlier publications for illustration purposes only.
Transgenic mice (as described in FIG. 20) with KRAS-mutant lung tumors were treated with the HSP90 inhibitor 17-DMAG for seven days. Tumor volumes were determined by magnetic resonance imaging and shown as transthoracic images (left panels), quantified and changes in tumor volume relative to the pre-therapy images are given in percent.
These mice carry a Lox-Stop-Lox-KRAS_G12D gene. […] Mice received 20 mg/kg/d of 17-DMAG, a geldanamycin HSP90 inhibitor with almost identical structure as 17-AAG.

[4] = tested on: Ba/F3 cells expressing erlotinib-sensitizing mutations of EGFR together with T790M; assay: Growth inhibition / cytotoxicity in Ba/F3 cells expressing mutant EGFR with T790M; assay type: cell-based, Murine; conditions: Ba/F3 with sensitizing EGFR mutation plus T790M, 96 h, cellular ATP content
Experimental: Compounds were then added in serial dilutions.
EGFR_cDNA was subcloned into pBabe-hygro vectors.

## C=CCNC1=C2C[C@@H](C)C[C@H](OC)[C@H](O)[C@@H](C)/C=C(\C)[C@H](OC(N)=O)[C@@H](OC)/C=C\C=C(/C)C(=O)NC(=CC1=O)C2=O [17-AAG, [(3S,5S,6R,7S,8E,10R,11S,12E,14E)-21-(allylamino)-6-hydroxy-5,11-dimethoxy-3,7,9,15-tetramethyl-16,20,22-trioxo-17-azabicyclo[16.3.1]docosa-8,12,14,18,21-pentaen-10-yl]carbamate]
KRAS
  KRAS protein levels after treatment: not modulated
Akt
  Akt protein levels after treatment: modulated; also recorded: reduced protein levels
[1]
  depletion of mutant EGFR from the Hsp90 complex: depleted from the complex
[2]
  depletion of mutant KRAS from the Hsp90 complex: not depleted from the complex
c-RAF
  c-RAF protein levels after treatment: modulated; also recorded: reduced protein levels
NSCLC cell lines
  sensitivity pattern (cytotoxic activity) across the NSCLC cell line collection: active in most of the cell lines with only a minority being resistant

## CO[C@H]1/C=C\C=C(/C)C(=O)NC2=CC(=O)C(NCCN(C)C)=C(C[C@@H](C)C[C@H](OC)[C@H](O)[C@@H](C)/C=C(\C)[C@@H]1OC(N)=O)C2=O [17-DMAG, 17-NN-Dimethyl Ethylene Diamine-Geldanamycin]
NSCLC cell lines; in vitro, data not shown
  biological effects in the cell lines compared with 17-AAG: identical
[3]; 20 mg/kg/d, one week of treatment, MRI imaging
  tumor burden of the third mouse: slight but insignificant reduction of tumor burden
[3]; 20 mg/kg/d, one week of treatment, MRI imaging, lox-stop-lox KRAS_G12D mice
  mice showing tumor regression: 2 of 3 and 3 of 4
[3]; lung tumor-bearing lox-stop-lox KRAS_G12D mice, one-week treatment
  duration of responses: transient

## N#CC(=C(/N)Sc1ccccc1N)/C(C#N)=C(\N)Sc1ccccc1N [U0126]
NSCLC cell lines
  sensitivity pattern (cytotoxic activity) across the NSCLC cell line collection: enhanced activity in a subset of the lung cancer cell line collection

## Cc1cc(Nc2cc(N3CCN(C)CC3)nc(Sc3ccc(NC(=O)C4CC4)cc3)n2)n[nH]1 [VX-680]
NSCLC cell lines
  sensitivity pattern (cytotoxic activity) across the NSCLC cell line collection: pronounced cytotoxic activity in a small subset of cell lines

## C#Cc1cccc(Nc2ncnc3cc(OCCOC)c(OCCOC)cc23)c1 [erlotinib]
NSCLC cell lines
  sensitivity pattern (cytotoxic activity) across the NSCLC cell line collection: pronounced cytotoxic activity in a small subset of cell lines

## COc1cc2c(Nc3ccc(Br)cc3F)ncnc2cc1OCC1CCN(C)CC1 [vandetanib]
[4]
  activity / cytotoxicity in Ba/F3 cells expressing the T790M resistance allele: completely resistant
[4]; listed as Vandatinib
  activity / cytotoxicity in Ba/F3 cells expressing the T790M resistance allele: lack of activity
NSCLC cell lines
  sensitivity pattern (cytotoxic activity) across the NSCLC cell line collection: pronounced cytotoxic activity in a small subset of cell lines
